Experimental data taken from US4535081A, “Antiallergic and antiulcer 1-oxo-1H-thiazolo[3,2-a]pyrimidine-2-carboxamides and intermediates therefor” (Pfizer Inc., priority 1983, dated 1985).
Values joined by “and” are separate entries in the source; they are usually repeats but may differ in a detail not shown here. Equal entries are not always repeated.

Experiments:
[1] = test system: plasma histamine rise in rats passively sensitized with IgE-rich antiserum; test: Passive systemic anaphylaxis, plasma histamine rise; type: in vivo, rat
ethanol-induced ulcer = test: Ethanol-induced rat ulcer assay; type: in vivo; settings: oral, 5 mg./kg.; Table III; listed as Formula I: (CH2)4
Description: Alternatively, the effectiveness of the products of this invention as antiulcer agents is determined in an ethanol-induced rat ulcer assay. In this test, overnight fasted male rats are given drug (5 mg./kg.) or water orally fifteen minutes prior to an orally administered dose of absolute ethanol (1.0 ml.). One hour after the ethanol challenge the animals (8/group) are killed and the stomachs examined for the presence of lesions. All drugs were dissolved in dilute NaOH. After sacrifice the abdomen is opened and a locking hemostat placed at the pylorus. 6 ml. of a 4% solution of formaldehyde was injected into the stomach with a gastric feeding tube and a second locking hemostat was used to seal the esophagus. The stomach was removed, opened along the greater curvature and examined for ulceration.
The scoring system used to quantitate the ethanol-induced lesions is given below.
For each group of animals an ulcer index is calculated as follows:
Ulceration Index=(the sum of the scores of the group)×(the sum of the number of ulcers in the group)×(the fraction of the group having any incidence of ulceration).
The percentage inhibition of ulcers is calculated as follows:
% Inhibition=100×[(ulcer index controls)-(ulcer index drug-treated)].div.(ulcer index controls).

[2] = test system: urinary volume output and sodium and potassium excretion; test: Diuretic activity; type: in vivo; settings: oral
Description: When given orally, it caused a dose-related increase in urinary volume output at doses in the range 0.3 to 5 mg/kg. […] These findings indicate that the dose-response range for diuretic activity is considerably higher than that for antiulcer effects and just below that for antiallergy effects (1 to 10 mg/kg).

bone marrow = test: Bone marrow chromosomal damage, mice; type: in vivo, mouse; settings: single oral 40 mg/kg; 6, 12 or 24 hours
Description: Single oral doses of III, 40 mg/kg, were administered to groups of mice who were sacrificed 6, 12 or 24 hours later. […] From these findings, it is evident that III has no obvious mutagenic potential.

Compound: O=C(Nc1nnn[nH]1)c1cnc2sc3c(n2c1=O)CCCC3 [Compound III, N-(5-Tetrazolyl)-1-oxo-1H-cyclohexenothiazolo[3,2-a]pyrimidine-2-carboxamide]
- potency relative to Intal, passive systemic anaphylaxis ([1]; i.v., vs Intal): 13 times
- passive systemic anaphylaxis ([1]; rat, in vivo): prevented
- % Inhibition in the Ethanol-Induced Rat Ulcer Assay, amides (ethanol-induced ulcer): 97% and 81%
- dose range of dose-related increase in urinary volume output [2]: 0.3 to 5 mg/kg
- maximum increase in urinary volume output ([2]; 0.3 to 5 mg/kg): twofold increase in volume output
- sodium and potassium excretion ([2]; 0.3 to 5 mg/kg): an increase in sodium and potassium excretion was observed
- urinary concentrations of sodium and potassium ions ([2]; 0.3 to 5 mg/kg): unchanged
- chromosomal damage in bone marrow, single dose (bone marrow): did not reveal any chromosomal damage
